PubChem BioAssay (NCI)
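The compound was tested at five concentrations on cells cultured in 96-well plates, with a 48-hour exposure period. At the TGI there is no net growth.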

How the values were obtained:
Test in all cases: inhibition of tumour cell growth, NCI panel, 48 h
SK-MEL-2 melanoma = test system: SK-MEL-2 melanoma
NCI-H460 lung = test system: NCI-H460 lung
HL-60(TB) leukemia = test system: HL-60(TB) leukemia
OVCAR-8 ovarian = test system: OVCAR-8 ovarian
RPMI-8226 leukemia = test system: RPMI-8226 leukemia
HCT-116 colon = test system: HCT-116 colon
ACHN renal = test system: ACHN renal
K-562 leukemia = test system: K-562 leukemia
TK-10 renal = test system: TK-10 renal
DU-145 prostate = test system: DU-145 prostate
BT-549 breast = test system: BT-549 breast
SF-268 CNS = test system: SF-268 CNS
UO-31 renal = test system: UO-31 renal
UACC-62 melanoma = test system: UACC-62 melanoma
OVCAR-5 ovarian = test system: OVCAR-5 ovarian
LOX IMVI melanoma = test system: LOX IMVI melanoma
MDA-N = test system: MDA-N
HCT-15 colon = test system: HCT-15 colon
HCC-2998 colon = test system: HCC-2998 colon
HS 578T breast = test system: HS 578T breast
IGROV1 ovarian = test system: IGROV1 ovarian
NCI-H23 lung = test system: NCI-H23 lung
A549 NSCLC = test system: A549 NSCLC
CCRF-CEM leukemia = test system: CCRF-CEM leukemia
SN12C renal = test system: SN12C renal
M14 melanoma = test system: M14 melanoma
COLO 205 colon = test system: COLO 205 colon
MOLT-4 leukemia = test system: MOLT-4 leukemia
OVCAR-4 ovarian = test system: OVCAR-4 ovarian
EKVX NSCLC = test system: EKVX NSCLC
NCI-H522 lung = test system: NCI-H522 lung
PC-3 prostate = test system: PC-3 prostate
T-47D breast = test system: T-47D breast
CAKI-1 renal = test system: CAKI-1 renal
SR leukemia = test system: SR leukemia
SK-MEL-5 melanoma = test system: SK-MEL-5 melanoma
MDA-MB-435 = test system: MDA-MB-435
U251 CNS = test system: U251 CNS
MCF7 breast = test system: MCF7 breast
NCI-H226 lung = test system: NCI-H226 lung
SNB-75 CNS = test system: SNB-75 CNS
SW-620 colon = test system: SW-620 colon
NCI/ADR-RES ovarian = test system: NCI/ADR-RES ovarian
A498 renal = test system: A498 renal
KM12 colon = test system: KM12 colon
SF-295 CNS = test system: SF-295 CNS
HOP-92 NSCLC = test system: HOP-92 NSCLC
SF-539 CNS = test system: SF-539 CNS
SNB-19 CNS = test system: SNB-19 CNS
HT29 colon = test system: HT29 colon
UACC-257 melanoma = test system: UACC-257 melanoma
OVCAR-3 ovarian = test system: OVCAR-3 ovarian
SK-OV-3 ovarian = test system: SK-OV-3 ovarian
MDA-MB-231 breast = test system: MDA-MB-231 breast
MALME-3M melanoma = test system: MALME-3M melanoma
HOP-62 NSCLC = test system: HOP-62 NSCLC
786-0 renal = test system: 786-0 renal
RXF 393 renal = test system: RXF 393 renal
SK-MEL-28 melanoma = test system: SK-MEL-28 melanoma
DMS 273 small cell lung = test system: DMS 273 small cell lung
M19-MEL melanoma = test system: M19-MEL melanoma
LXFL 529 NSCLC = test system: LXFL 529 NSCLC
DMS 114 small cell lung = test system: DMS 114 small cell lung
KM20L2 colon = test system: KM20L2 colon
XF 498 CNS = test system: XF 498 CNS

COc1cc2c(cc1[N+](=O)[O-])C(=O)C(Br)(Br)CCC2
TGI (SK-MEL-2 melanoma): 4.8 µM | TGI (NCI-H460 lung): 20.1 µM | TGI (HL-60(TB) leukemia): 21 µM | TGI (OVCAR-8 ovarian): 5.54 µM | TGI (RPMI-8226 leukemia): 4.07 µM | TGI (HCT-116 colon): 1.87 µM | TGI (ACHN renal): 4.47 µM | TGI (K-562 leukemia): 6.27 µM | TGI (TK-10 renal): 9.72 µM | TGI (DU-145 prostate): 25.8 µM | TGI (BT-549 breast): 4.97 µM | TGI (SF-268 CNS): 15.6 µM | TGI (UO-31 renal): 3.23 µM | TGI (UACC-62 melanoma): 10 µM | TGI (OVCAR-5 ovarian): 4.42 µM | TGI (LOX IMVI melanoma): 1.97 µM | TGI (MDA-N): 9.46 µM | TGI (HCT-15 colon): 3.67 µM | TGI (HCC-2998 colon): 32.5 µM | TGI (HS 578T breast): 23.2 µM | TGI (IGROV1 ovarian): 2.93 µM | TGI (NCI-H23 lung): 8.59 µM | TGI (A549 NSCLC): > 46.6 µM | TGI (CCRF-CEM leukemia): 3.35 µM | TGI (SN12C renal): 5.16 µM | TGI (M14 melanoma): 5.34 µM | TGI (COLO 205 colon): 3.57 µM | TGI (MOLT-4 leukemia): 5.95 µM | TGI (OVCAR-4 ovarian): 15.7 µM | TGI (EKVX NSCLC): 6.25 µM | TGI (NCI-H522 lung): 2.37 µM | TGI (PC-3 prostate): 17 µM | TGI (T-47D breast): > 27.2 µM | TGI (CAKI-1 renal): 7.8 µM | TGI (SR leukemia): 4.96 µM | TGI (SK-MEL-5 melanoma): 3.77 µM | TGI (MDA-MB-435): 10.9 µM | TGI (U251 CNS): 9.04 µM | TGI (MCF7 breast): 5.33 µM | TGI (NCI-H226 lung): 10.7 µM | TGI (SNB-75 CNS): 25.8 µM | TGI (SW-620 colon): 3.99 µM | TGI (NCI/ADR-RES ovarian): 7.31 µM | TGI (A498 renal): 28.6 µM | TGI (KM12 colon): 15.2 µM | TGI (SF-295 CNS): 19.4 µM | TGI (HOP-92 NSCLC): 17 µM | TGI (SF-539 CNS): 3.87 µM | TGI (SNB-19 CNS): 19.5 µM | TGI (HT29 colon): 11.2 µM | TGI (UACC-257 melanoma): 26.7 µM | TGI (OVCAR-3 ovarian): 10.5 µM | TGI (SK-OV-3 ovarian): 9.41 µM | TGI (MDA-MB-231 breast): 9.42 µM | TGI (MALME-3M melanoma): 4.99 µM | TGI (HOP-62 NSCLC): 14.4 µM | TGI (786-0 renal): 2.73 µM | TGI (RXF 393 renal): 4.51 µM

O=C(NC(OCc1ccccc1)(C(F)(F)F)C(F)(F)F)OCc1ccccc1
TGI (SK-MEL-28 melanoma): 31.5 µM | TGI (SK-MEL-2 melanoma): 28.7 µM | TGI (NCI-H460 lung): 29.6 µM | TGI (HL-60(TB) leukemia): 40.8 µM | TGI (OVCAR-8 ovarian): 30.1 µM | TGI (RPMI-8226 leukemia): 41.1 µM | TGI (HCT-116 colon): 29.9 µM | TGI (ACHN renal): 29.2 µM | TGI (K-562 leukemia): 36.8 µM | TGI (TK-10 renal): 20.9 µM | TGI (DU-145 prostate): 30.3 µM | TGI (BT-549 breast): 28.7 µM | TGI (SF-268 CNS): 32.2 µM | TGI (UO-31 renal): 23.3 µM | TGI (UACC-62 melanoma): 27 µM | TGI (OVCAR-5 ovarian): 27.4 µM | TGI (LOX IMVI melanoma): 27.6 µM | TGI (MDA-N): 28.5 µM | TGI (HCT-15 colon): 26.7 µM | TGI (HCC-2998 colon): 28.8 µM | TGI (HS 578T breast): 31.3 µM | TGI (IGROV1 ovarian): 28.6 µM | TGI (NCI-H23 lung): 25.8 µM | TGI (A549 NSCLC): 28.5 µM | TGI (CCRF-CEM leukemia): 34.9 µM | TGI (SN12C renal): 29.4 µM | TGI (M14 melanoma): 33 µM | TGI (COLO 205 colon): 31.6 µM | TGI (MOLT-4 leukemia): 38.6 µM | TGI (EKVX NSCLC): 28.7 µM | TGI (NCI-H522 lung): 26.5 µM | TGI (PC-3 prostate): 26.7 µM | TGI (T-47D breast): 29.4 µM | TGI (CAKI-1 renal): 27.5 µM | TGI (SR leukemia): 26.8 µM | TGI (SK-MEL-5 melanoma): 29.3 µM | TGI (MDA-MB-435): 31 µM | TGI (U251 CNS): 27.1 µM | TGI (MCF7 breast): 30.1 µM | TGI (NCI-H226 lung): 27.7 µM | TGI (SNB-75 CNS): 29 µM | TGI (SW-620 colon): 31.1 µM | TGI (NCI/ADR-RES ovarian): 26.3 µM | TGI (A498 renal): 31.6 µM | TGI (KM12 colon): 30.2 µM | TGI (SF-295 CNS): 31.4 µM | TGI (HOP-92 NSCLC): 27.8 µM | TGI (SF-539 CNS): 31.1 µM | TGI (SNB-19 CNS): 29.2 µM | TGI (HT29 colon): 32.2 µM | TGI (UACC-257 melanoma): 27.3 µM | TGI (OVCAR-3 ovarian): 28.6 µM | TGI (SK-OV-3 ovarian): 31.3 µM | TGI (MDA-MB-231 breast): 32.3 µM | TGI (MALME-3M melanoma): 31.9 µM | TGI (HOP-62 NSCLC): 28.4 µM | TGI (786-0 renal): 30.1 µM | TGI (RXF 393 renal): 25.3 µM

N#CCCN(c1ccc(C=O)cc1)S(=O)(=O)c1ccccc1
TGI (SK-MEL-28 melanoma): > 100 µM | TGI (SK-MEL-2 melanoma): > 100 µM | TGI (NCI-H460 lung): > 100 µM | TGI (HL-60(TB) leukemia): > 100 µM | TGI (OVCAR-8 ovarian): > 100 µM | TGI (DMS 273 small cell lung): > 100 µM | TGI (RPMI-8226 leukemia): > 100 µM | TGI (HCT-116 colon): > 100 µM | TGI (ACHN renal): > 100 µM | TGI (K-562 leukemia): > 100 µM | TGI (SF-268 CNS): > 100 µM | TGI (UO-31 renal): > 100 µM | TGI (UACC-62 melanoma): > 100 µM | TGI (OVCAR-5 ovarian): > 100 µM | TGI (LOX IMVI melanoma): > 100 µM | TGI (HCT-15 colon): > 100 µM | TGI (HCC-2998 colon): > 100 µM | TGI (IGROV1 ovarian): > 100 µM | TGI (A549 NSCLC): > 100 µM | TGI (M19-MEL melanoma): > 100 µM | TGI (SN12C renal): > 100 µM | TGI (M14 melanoma): > 100 µM | TGI (MOLT-4 leukemia): > 100 µM | TGI (LXFL 529 NSCLC): > 100 µM | TGI (OVCAR-4 ovarian): > 100 µM | TGI (EKVX NSCLC): > 100 µM | TGI (NCI-H522 lung): > 100 µM | TGI (CAKI-1 renal): > 100 µM | TGI (SR leukemia): > 100 µM | TGI (SK-MEL-5 melanoma): > 100 µM | TGI (U251 CNS): > 100 µM | TGI (NCI-H226 lung): > 100 µM | TGI (SNB-75 CNS): > 100 µM | TGI (SW-620 colon): > 100 µM | TGI (A498 renal): > 100 µM | TGI (KM12 colon): > 100 µM | TGI (SF-295 CNS): > 100 µM | TGI (SF-539 CNS): > 100 µM | TGI (SNB-19 CNS): > 100 µM | TGI (DMS 114 small cell lung): > 100 µM | TGI (HT29 colon): > 100 µM | TGI (UACC-257 melanoma): > 100 µM | TGI (OVCAR-3 ovarian): > 100 µM | TGI (SK-OV-3 ovarian): > 100 µM | TGI (KM20L2 colon): > 100 µM | TGI (MALME-3M melanoma): > 100 µM | TGI (HOP-62 NSCLC): > 100 µM | TGI (786-0 renal): > 100 µM | TGI (XF 498 CNS): > 100 µM
